In brackets after ≈: the same amount, converted by molar mass.
Columns and labels:
[1] = Ratio of drug level in brain to plasma in C57BL/6 mouse; format: ADME, organism-based; conditions: brain and plasma, read-out: BPR
[2] = Solubility of the compound; format: physicochemical
[3] = molecular target: Voltage-gated inwardly rectifying potassium channel KCNH2 (Homo sapiens, UniProt Q12809); experiment: Inhibition of human ERG
Liver microsome = experiment: Intrinsic clearance in human liver microsomes measured pre ug of protein; format: ADME
Gamma-secretase = experiment: Inhibition of human gamma-secretase in HEK-APPswe cells assessed as amyloid beta42 production by electrochemiluminescence assay; format: cell-based
[4] = Permeability across apical to basolateral side in human Caco2 cells; format: ADME, cell-based; conditions: for Papp A→B: Caco-2, read-out: permeability; for permeability: Caco-2
[5] = Permeability across basolateral to apical side in human Caco2 cells; format: ADME, cell-based; conditions: for Papp B→A: Caco-2, read-out: permeability; for permeability: Caco-2
[6] = Inhibition of gamma-secretase in mouse primary cortical neurons cells assessed as amyloid beta42 production after 5 days by ELISA; format: cell-based, Cerebral cortex neuron; conditions: for IC50: Mus musculus, Cerebral cortex neuron, 120 h; for pIC50: cerebral cortex neuron

Voltage-gated inwardly rectifying potassium channel KCNH2, sequence (Q12809 whole entry): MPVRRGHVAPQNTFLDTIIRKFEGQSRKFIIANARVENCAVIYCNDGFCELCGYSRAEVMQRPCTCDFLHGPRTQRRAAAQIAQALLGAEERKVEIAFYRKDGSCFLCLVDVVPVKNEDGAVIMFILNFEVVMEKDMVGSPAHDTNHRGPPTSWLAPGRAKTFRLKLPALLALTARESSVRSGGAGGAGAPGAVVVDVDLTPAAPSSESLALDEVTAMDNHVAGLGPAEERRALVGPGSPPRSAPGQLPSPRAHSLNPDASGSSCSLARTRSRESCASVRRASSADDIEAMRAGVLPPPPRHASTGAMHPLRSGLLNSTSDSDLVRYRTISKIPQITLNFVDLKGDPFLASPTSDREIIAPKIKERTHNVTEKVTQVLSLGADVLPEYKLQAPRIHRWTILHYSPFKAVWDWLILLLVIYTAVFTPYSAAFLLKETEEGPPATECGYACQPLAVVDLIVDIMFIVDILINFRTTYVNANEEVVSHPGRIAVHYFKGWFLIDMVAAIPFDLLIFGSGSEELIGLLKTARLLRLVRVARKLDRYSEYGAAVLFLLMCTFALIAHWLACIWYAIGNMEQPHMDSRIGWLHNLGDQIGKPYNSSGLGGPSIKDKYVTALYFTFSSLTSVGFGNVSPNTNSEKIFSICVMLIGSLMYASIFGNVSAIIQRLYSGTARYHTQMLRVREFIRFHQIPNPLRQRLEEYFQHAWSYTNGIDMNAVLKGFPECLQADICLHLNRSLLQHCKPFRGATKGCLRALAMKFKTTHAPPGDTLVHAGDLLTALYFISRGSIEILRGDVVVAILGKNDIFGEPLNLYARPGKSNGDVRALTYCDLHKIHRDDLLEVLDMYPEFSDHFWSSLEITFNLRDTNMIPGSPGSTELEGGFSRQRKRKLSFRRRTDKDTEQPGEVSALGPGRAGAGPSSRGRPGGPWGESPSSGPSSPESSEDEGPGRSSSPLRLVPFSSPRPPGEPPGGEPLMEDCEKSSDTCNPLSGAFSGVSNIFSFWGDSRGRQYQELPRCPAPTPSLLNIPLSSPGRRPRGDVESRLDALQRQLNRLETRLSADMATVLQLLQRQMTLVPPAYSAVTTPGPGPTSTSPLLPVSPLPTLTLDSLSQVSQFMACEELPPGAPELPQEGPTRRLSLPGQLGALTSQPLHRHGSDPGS

| SMILES | Kp [1] | solubility ([2]; read-out: solubility) | IC50 [3] | CLH (Liver microsome) | pIC50 (Gamma-secretase) | Papp A→B [4] | Papp B→A [5] | permeability [4] | permeability [5] | IC50 [6] | pIC50 [6] | solubility [2] |
| --- | --- | --- | --- | --- | --- | --- | --- | --- | --- | --- | --- | --- |
| COc1cc(Nc2nc3n(n2)CCC(=O)N3Cc2ccccc2C)ccc1-c1noc(C)n1 | 0.81 | 50 µM (≈ 22.3 µg/mL) | 33000 nM | 39 µL/min | 4.8 | 38 ×10⁻⁶ cm/s | 12 ×10⁻⁶ cm/s |  |  |  |  |  |
| COc1cc(Nc2nc3n(n2)CCC(=O)N3Cc2ccccc2C)ccc1-c1cnc(C)nc1 |  | < 1 µM | 11000 nM | 94 µL/min | 7.2 |  |  |  |  |  |  |  |
| COc1cc(Nc2nc3n(n2)CCC(=O)N3Cc2ccccc2C(F)(F)F)ccc1-n1cnc(C)n1 | 0.68 |  | 33000 nM | 19 µL/min | 7.3 |  |  | 45 ×10⁻⁶ cm/s | 18 ×10⁻⁶ cm/s |  |  |  |
| COc1cc(Nc2nc3n(n2)CC(O)CN3Cc2ccccc2)ccc1-n1cnc(C)c1 (stereo not given) |  | 290 µM (≈ 125 µg/mL) | 28000 nM | 19 µL/min |  |  |  |  |  | 100 nM |  |  |
| COc1cc(Nc2nc3n(n2)C(C)CCN3CC(C)(C)O)ccc1-n1cnc(C)c1 (stereo not given) |  | 330 µM (≈ 136 µg/mL) | 33000 nM | 33 µL/min | 6.5 |  |  |  |  | 316 nM |  |  |
| COc1cc(Nc2nc3n(n2)CC(C)(O)CN3Cc2ccccc2)ccc1-n1cnc(C)c1 (stereo not given) |  | 160 µM (≈ 71.3 µg/mL) | 23000 nM | 17 µL/min |  |  |  |  |  | 126 nM |  |  |
| COc1cc(Nc2nc3n(n2)CCCC3c2ccccc2)ccc1-n1cnc(C)c1 (stereo not given) | 0.12 |  |  |  | 7.6 | 36 ×10⁻⁶ cm/s | 13 ×10⁻⁶ cm/s |  |  | 50.1 nM |  |  |
| COc1nc(Nc2nc3n(n2)CCCC3c2ccc(F)cc2)ccc1-n1cnc(C)c1 (stereo not given) |  |  |  |  | 7.2 |  |  |  |  |  |  |  |
| COc1cc(Nc2nc3n(n2)CCCC3c2ccc(F)cc2)ccc1-c1cnnc(C)c1 (stereo not given) |  |  |  |  | 7.7 |  |  |  |  | 100 nM |  |  |
| COc1cc(Nc2nc3n(n2)CCCN3CCC2CC2)ccc1-n1cnc(C)c1 |  | 17 µM (≈ 6.69 µg/mL) | 6200 nM | 105 µL/min | 7.4 |  |  |  |  | 79.4 nM |  |  |
| COc1cc(Nc2nc3n(n2)CCC(=O)N3Cc2ccccc2C)ccc1-c1cc(C)cnn1 |  | 170 µM (≈ 77.4 µg/mL) | 33000 nM | 27 µL/min | 5 |  |  |  |  |  |  |  |
| Cc1nnc(-c2ccc(Nc3nc4n(n3)CCCC4c3ccc(F)cc3)cc2)o1 (stereo not given) |  |  |  |  | 5.9 |  |  |  |  |  |  |  |
| COc1cc(Nc2nc3n(n2)CCC(=O)N3Cc2ccccc2C)ccc1-c1ccc(C)nn1 |  | < 1 µM | 33000 nM | 66 µL/min |  |  |  |  |  |  |  |  |
| COc1cc(Nc2nc3n(n2)CCC(=O)N3Cc2ccccc2)ccc1-n1cnc(C)c1 | 0.24 | < 1 µM | 5700 nM | 30 µL/min | 7.9 | 36 ×10⁻⁶ cm/s | 12 ×10⁻⁶ cm/s |  |  | 79.4 nM |  |  |
| COc1cc(Nc2nc3n(n2)C2(CC2)CC(=O)N3Cc2ccc(F)cc2)ccc1-n1cnc(C)c1 |  | < 1 µM |  | 29 µL/min | 7.9 |  |  |  |  | 25.1 nM |  |  |
| COc1cc(Nc2nc3n(n2)CCC(=O)N3Cc2ccccc2)ccc1-n1cnc(C)n1 |  | 8 µM (≈ 3.44 µg/mL) | 17000 nM | 16 µL/min | 7 |  |  |  |  | 794 nM |  |  |
| COc1cc(Nc2nc3n(n2)C(c2ccccc2)CCN3CC(C)(C)O)ccc1-n1cnc(C)c1 (stereo not given) | 0.01 | 230 µM (≈ 109 µg/mL) | 26000 nM | 39 µL/min |  | 35 ×10⁻⁶ cm/s | 19 ×10⁻⁶ cm/s |  |  | 25.1 nM |  |  |
| COc1cc(Nc2nc3n(n2)CCC(=O)N3Cc2ccccc2C)ccc1-c1ccnnc1 | 0.11 | < 1 µM | 33000 nM | 56 µL/min | 7.5 | 18 ×10⁻⁶ cm/s | 22 ×10⁻⁶ cm/s |  |  | 79.4 nM |  |  |
| COc1cc(Nc2nc3n(n2)CCCC3c2ccc(F)cc2)ccc1-n1cnc(C)n1 (stereo in doubt; 14A) |  |  |  |  | 7.4 |  |  |  |  |  | 7 |  |

| SMILES | Kp [1] | solubility ([2]; read-out: solubility) | IC50 [3] | CLH (Liver microsome) | pIC50 (Gamma-secretase) | Papp A→B [4] | Papp B→A [5] | permeability [4] | permeability [5] | IC50 [6] | pIC50 [6] | solubility [2] |
| --- | --- | --- | --- | --- | --- | --- | --- | --- | --- | --- | --- | --- |
| COc1cc(Nc2nc3n(n2)C(C)(C)CC(=O)N3Cc2ccc(F)cc2)ccc1-n1cnc(C)c1 | 0.23 | 2 µM (≈ 0.951 µg/mL) | 5600 nM | 50 µL/min | 7.9 |  |  |  |  | 31.6 nM |  |  |
| COc1cc(Nc2nc3n(n2)CCC(O)N3Cc2ccccc2)ccc1-n1cnc(C)c1 (stereo not given) | 0.01 | 110 µM (≈ 47.5 µg/mL) |  | 37 µL/min | 7.8 |  |  | 12 ×10⁻⁶ cm/s | 34 ×10⁻⁶ cm/s | 79.4 nM |  |  |
| COc1cc(Nc2nc3n(n2)C(C2CC2)CCN3CCC(C)(C)O)ccc1-n1cnc(C)c1 (stereo not given) |  | 69 µM (≈ 31.2 µg/mL) | 16000 nM | 26 µL/min |  |  |  |  |  | 100 nM |  |  |
| COc1cc(Nc2nc3n(n2)C(C)CC(=O)N3CC2CC(F)(F)C2)ccc1-n1cnc(C)c1 (stereo not given) | 0.08 | 4 µM (≈ 1.83 µg/mL) | 4400 nM | 101 µL/min |  | 50 ×10⁻⁶ cm/s | 19 ×10⁻⁶ cm/s |  |  | 50.1 nM |  |  |
| COc1cc(Nc2nc3n(n2)C(C)CC(=O)N3Cc2ccccc2)ccc1-n1cnc(C)c1 (stereo in doubt; 19A) |  |  |  | 73 µL/min | 7.7 |  |  |  |  |  | 6.8 | 1 µM (≈ 0.444 µg/mL) |
| COc1cc(Nc2nc3n(n2)CCC(=O)N3Cc2ccccc2C)ccc1-c1cnnc(C)c1 | 0.07 | < 1 µM | 33000 nM | 109 µL/min | 8 | 14 ×10⁻⁶ cm/s | 6 ×10⁻⁶ cm/s |  |  | 39.8 nM |  |  |
| COc1cc(Nc2nc3n(n2)C(C)CCN3CCC(C)(C)O)ccc1-n1cnc(C)c1 (stereo not given) |  | 380 µM (≈ 162 µg/mL) | 32000 nM | 47 µL/min |  |  |  |  |  | 158 nM |  |  |
| COc1cc(Nc2nc3n(n2)CCC(=O)N3Cc2ccccc2Cl)ccc1-n1cnc(C)n1 |  | < 1 µM | 33000 nM | 22 µL/min | 7.4 |  |  |  |  |  |  |  |
| COc1cc(Nc2nc3n(n2)C(C2CC2)CCN3CC(C)(C)O)ccc1-n1cnc(C)c1 (stereo in doubt; 42B) |  | 42 µM (≈ 18.4 µg/mL) | 33000 nM | 21 µL/min |  |  |  |  |  |  | 6.9 |  |
| COc1cc(Nc2nc3n(n2)C(C2CC2)CC(=O)N3Cc2cc(F)ccc2F)ccc1-n1cnc(C)c1 (stereo not given) | 0.11 | < 1 µM | 33000 nM | 88 µL/min |  |  |  |  |  | 15.8 nM |  |  |
| COc1cc(Nc2nc3n(n2)CCCC3c2ccc(F)cc2)ccc1-n1cnc(C)n1 (stereo in doubt; 14B) |  |  |  |  | 7 |  |  |  |  |  | 6.5 |  |
| COc1cc(Nc2nc3n(n2)C(C)CC(=O)N3Cc2cc(F)ccc2F)ccc1-n1cnc(C)c1 (stereo not given) |  | < 1 µM |  | 70 µL/min | 7.7 |  |  |  |  | 20 nM |  |  |
| COc1cc(Nc2nc3n(n2)CCCN3Cc2ccccc2)ccc1-n1cnc(C)c1 |  | 49 µM (≈ 20.4 µg/mL) | 5000 nM | 82 µL/min | 7.7 |  |  |  |  | 100 nM |  |  |
| COc1cc(Nc2nc3n(n2)CCC(=O)N3Cc2ccccc2C)ccc1-n1cnc(C)c1 |  | < 1 µM | 13000 nM | 114 µL/min | 8 |  |  |  |  | 39.8 nM |  |  |
| COc1cc(Nc2nc3n(n2)CC(C)C(=O)N3Cc2ccccc2)ccc1-n1cnc(C)c1 (stereo not given) |  | 2 µM (≈ 0.887 µg/mL) | 5600 nM | 84 µL/min |  |  |  |  |  | 50.1 nM |  |  |
| N#CCc1ccc(Nc2nc3n(n2)CCCC3c2ccc(F)cc2)cc1 (stereo not given) |  |  |  |  | 5.8 |  |  |  |  |  |  |  |
| COc1cc(Nc2nc3n(n2)CCCC3c2ccc(F)cc2)ccc1-c1nc(C)no1 (stereo not given) |  |  |  |  | 6.8 |  |  |  |  |  |  |  |
| COc1cc(Nc2nc3n(n2)CCC(=O)N3c2ccccc2)ccc1-n1cnc(C)c1 |  | 2 µM (≈ 0.831 µg/mL) | 33000 nM | 36 µL/min | 7.4 |  |  |  |  | 251 nM |  |  |
